According to patent US5623050A, “Stable polypeptides having c-AMP production enhancing activity and the use thereof” (Takeda Chemical Industries, Ltd., priority 1991, dated 1997):

Experiment: Oxidized product content by HPLC on storage
Assay type: physicochemical
Description: In order to clarify that the polypeptides of the present invention are not easily oxidized, oxidized product content (%) of Arg^17 -PACAP27 obtained in Example 1 below were assayed when stored both in lyophylization and in aqueous acetic acid. The assay of the oxidized product content (%) were conducted on High Performance Liquid Chromatography (HPLC). Conditions of HPLC are as follows:
Solution A 0.1% aqueous trifluoroacetic acid
Solution B acetonitrile containing 0.1% trifluoroacetic acid
A linear gradient elution from solution A to solution
Elution time of Arg^17 -PACAP27:19.9 min

Oxidized product (%) just after synthesizing (just after synthesizing): 0%
Oxidized product (%) aqueous acetic acid (stored in aqueous acetic acid): 0%
Oxidized product (%) lyophilization store (stored in lyophilization): 0%
SMILES: CC[C@H](C)[C@H](NC(=O)CNC(=O)[C@H](CC(=O)O)NC(=O)[C@H](CO)NC(=O)[C@@H](N)Cc1c[nH]cn1)C(=O)N[C@@H](Cc1ccccc1)C(=O)N[C@H](C(=O)N[C@@H](CC(=O)O)C(=O)N[C@@H](CO)C(=O)N[C@@H](Cc1ccc(O)cc1)C(=O)N[C@@H](CO)C(=O)N[C@@H](CCCNC(=N)N)C(=O)N[C@@H](Cc1ccc(O)cc1)C(=O)N[C@@H](CCCNC(=N)N)C(=O)N[C@@H](CCCCN)C(=O)N[C@@H](CCC(N)=O)C(=O)N[C@@H](CCCNC(=N)N)C(=O)N[C@@H](C)C(=O)N[C@H](C(=O)N[C@@H](CCCCN)C(=O)N[C@@H](CCCCN)C(=O)N[C@@H](Cc1ccc(O)cc1)C(=O)N[C@@H](CC(C)C)C(=O)N[C@@H](C)C(=O)N[C@@H](C)C(=O)N[C@H](C(=O)N[C@@H](CC(C)C)C(N)=O)C(C)C)C(C)C)[C@@H](C)O [Arg^17 -PACAP27]
